# Results reported in publication PMC12081876, “Identification of PTGR2 inhibitors as a new therapeutic strategy for diabetes and obesity” (EMBO Molecular Medicine, 2025).
# Where “and” joins values, the source holds several entries; their conditions need not be identical. Identical values can stand only once.
# Experiments:
# [1] = tested on: HFHSD-fed obese C57BL6/J mice; test: Intraperitoneal glucose tolerance test (ipGTT); assay type: in vivo, mouse; set-up: Figure 2H Average (glucose, ipGTT) / ipGTT / ipGTT glucose, Average / Blood glucose during glucose tolerance test (Figure 5L), Average: unit not given here; conditions: for ipGTT glucose, Average: BPRPT0245 100 mg/kg/day, group average (Figure 5L); for ipGTT glucose, individual mice: individual mouse values (Figure 5L, sheet BPRPT0245), in mg/dL (unit assumed)
# Experimental: (§1) Glucose tolerance was evaluated by the oral (OGTT) and intraperitoneal glucose tolerance test (ipGTT) after a 6-h fast. For the OGTT, glucose water (1 mg/g) was given by oral gavage, and tail blood glucose was measured with a glucometer (ACCU-CHEK Performa, Roche) at 0, 15, 30, 45, 60, 90, and 120 min. For the ipGTT, tail blood glucose was measured at 0, 15, 30, 45, 60, 90, and 120 min after intraperitoneal injection of glucose water (1 mg/g). For the insulin tolerance test (ITT), mice were fasted for 4 h and then injected intraperitoneally with 1 U/kg of insulin (Humulin R, Eli Lilly). Tail blood glucose was measured at 0, 15, 30, 45, 60, 90, 120, and 180 min.
# [2] = tested on: HFHSD-fed obese C57BL6/J mice; test: Body weight / diet-induced obesity in HFHSD-fed mice; assay type: in vivo, mouse; conditions: for Body weight, Avg: BPRPT0245 100 mg/kg/day (Figure 5J); for Body weight, Avg / Body weight, Average / Body weight (individual mouse): in g (unit assumed); for Body weight, Average / Body weight (individual mouse): Figure 5J; for Body weight, Average: 100 mg/kg/day; for Body weight (individual mouse): BPRPT0245 group
# [3] = tested on: differentiated 3T3-L1 adipocytes; test: Insulin-stimulated glucose uptake assay by (3H)2-deoxyglucose; assay type: cell-based, mouse; conditions: differentiated 3T3-L1 adipocytes
# Experimental: The cell lines, which were tested for mycoplasma contamination and authenticated, were purchased from the Bioresource Collection and Research Center, Taiwan. All cells were cultured at 37 °C, 5% CO2 in a humidified incubator. HEK293T cells were maintained in DMEM (cat. no. SH30003.02, HyClone) supplemented with 10% fetal bovine serum (FBS) (cat. no. 04-001-1A, Biological Industries) and 1% antibiotic/antimycotic solution (cat. no. SV30079.01, HyClone). 3T3-L1 preadipocytes were maintained at ~70% confluence in DMEM with 10% calf serum (cat. no. 16170078, Gibco) and 1% antibiotic/antimycotic solution. For adipocyte differentiation, confluent 3T3-L1 cells (defined as day 0) were exposed to an induction medium containing 10% FBS, 1 μM dexamethasone (cat. no. D4902, Sigma-Aldrich), and 1 μg/ml insulin (Humulin R, Eli Lilly) in DMEM with or without 0.5 mM isobutyl-methylxanthine (cat. no. sc-201188A, Santa Cruz Biotechnology) as indicated. After two days, the medium was replaced with DMEM containing 10% FBS and 1 μg/ml insulin and was replenished every two days until assay.
# Differentiated 3T3-L1 cells were starved with serum-free DMEM containing 0.2% BSA (cat. no. A9647, Sigma-Aldrich). Cells were rinsed twice with KRH buffer (137 mM NaCl, 4.7 mM KCl, 1.85 mM CaCl2, 1.3 mM MgSO4, 50 mM HEPES and 0.1% BSA, pH 7.4), and treated with or without […] insulin in the presence of 20 μM cytochalasin B (cat. no. 11328, Cayman Chemical), a GLUT inhibitor for measuring non-specific glucose uptake, for 30 min. Cells were then incubated with 0.5 μCi [^3H]-2-deoxy-D-Glucose (cat. no. NET328A001MC, PerkinElmer) and 0.1 μM 2-deoxy-D-Glucose (2DG) (cat. no. 14325, Cayman Chemical) for 5 min. Uptake of 2DG was terminated by rapidly removing medium and washing with ice-cold PBS three times. Cells were lysed with 0.1% SDS, and the radioactivity was measured using a liquid scintillation counter. Insulin-mediated glucose uptake was calculated by subtracting insulin-treated glucose uptake with basal glucose uptake.
# [4] = tested on: HFHSD-fed obese C57BL6/J mice; test: Insulin tolerance test (ITT); assay type: in vivo, mouse; set-up: Figure 2I Average (glucose, ITT) / ITT / ITT glucose, Average / Blood glucose during insulin tolerance test (Figure 5M), Average: unit not given here; conditions: for ITT glucose, Average: BPRPT0245 100 mg/kg/day, group average (Figure 5M); for ITT glucose, individual mice: individual mouse values (Figure 5M, sheet BPRPT0245), in mg/dL (unit assumed)
# Experimental: as §1
# [5] = 100 mg/kg/day oral, HFHSD-fed mice, vs vehicle
smiles,measurement,setting,value
Cc1[nH]c2nc(C(C)N3CCN(c4ccccc4)CC3)nn2c(=O)c1Cc1ccc(F)cc1 (stereo not shown) [BPRPT0245],"ipGTT glucose, Average",[1]; 0 minute,153.667
same,"ipGTT glucose, individual mice",[1]; 0 minute,129 and 127 and 202 and 168 and 162 and 152 and 179 and 142 and 147 and 175 and 150 and 108 and 169
same,glucose tolerance (ipGTT),[1]; [5],improved glucose tolerance
same,"ipGTT glucose, Average",[1]; 15 minute,305
same,"ipGTT glucose, individual mice",[1]; 15 minute,325 and 328 and 302 and 300 and 251 and 345 and 316 and 291 and 297 and 290 and 312 and 319 and 271 and 303
same,"ipGTT glucose, Average",[1]; 30 minute,285.933
same,"ipGTT glucose, individual mice",[1]; 30 minute,318 and 250 and 316 and 269 and 323 and 308 and 260 and 273 and 295 and 280 and 325 and 283 and 289 and 215 and 285
same,"ipGTT glucose, Average",[1]; 45 minute,242.333
same,"ipGTT glucose, individual mice",[1]; 45 minute,261 and 181 and 275 and 209 and 208 and 318 and 231 and 278 and 227 and 225 and 336 and 288 and 173 and 200
same,"ipGTT glucose, Average",[1]; 60 minute,219.733
same,"ipGTT glucose, individual mice",[1]; 60 minute,262 and 155 and 167 and 252 and 207 and 264 and 223 and 275 and 201 and 277 and 228 and 194 and 179 and 205
same,"ipGTT glucose, Average",[1]; 90 minute,192.133
same,"ipGTT glucose, individual mice",[1]; 90 minute,204 and 144 and 134 and 174 and 173 and 260 and 232 and 213 and 160 and 193 and 231 and 169 and 117 and 218
same,"ipGTT glucose, Average",[1]; 120 minute,185.4
same,"ipGTT glucose, individual mice",[1]; 120 minute,218 and 166 and 140 and 179 and 201 and 221 and 215 and 198 and 168 and 199 and 217 and 208 and 174 and 111
same,diet-induced obesity (body weight),[2]; [5],significantly prevented diet-induced obesity
same,"Body weight, Avg",[2]; time point 0,30.59
same,"Body weight, Avg",[2]; time point 1,31.2
same,"Body weight, Avg",[2]; time point 2,31.673
same,"Body weight, Avg",[2]; time point 3,32.167
same,"Body weight, Avg",[2]; time point 4,32.92
same,"Body weight, Avg",[2]; time point 5,32.837
same,"Body weight, Avg",[2]; time point 6,33.673
same,"Body weight, Avg",[2]; time point 7,33.323
same,"Body weight, Avg",[2]; time point 8,33.923
same,"Body weight, Avg",[2]; time point 9,34.59
same,"Body weight, Avg",[2]; time point 10,35.623
same,"Body weight, Avg",[2]; time point 11,36.193
same,"Body weight, Avg",[2]; time point 12,37.113
same,"Body weight, Avg",[2]; time point 13,36.957
same,"Body weight, Avg",[2]; time point 14,38.33
same,"Body weight, Avg",[2]; time point 15,38.607
same,"Body weight, Avg",[2]; time point 16,39.303
same,"Body weight, Avg",[2]; time point 17,40.533
same,"Body weight, Avg",[2]; time point 18,40.933
same,"Body weight, Avg",[2]; time point 19,42.11
same,"Body weight, Avg",[2]; time point 20,41.483
same,"Body weight, Avg",[2]; time point 21,42.933
same,"Body weight, Avg",[2]; time point 22,43.33
same,"Body weight, Avg",[2]; time point 23,44.06
same,"Body weight, Avg",[2]; time point 24,44.36
same,"Body weight, Avg",[2]; time point 25,45.28
same,"Body weight, Average",[2]; week 0,30.59
same,Body weight (individual mouse),[2]; week 0,30 and 33.8 and 29.8 and 28.35
same,"Body weight, Average",[2]; week 1,31.2
same,Body weight (individual mouse),[2]; week 1,30.45 and 34.45 and 30.15 and 29.55
same,"Body weight, Average",[2]; week 2,31.6733
same,Body weight (individual mouse),[2]; week 2,31.05 and 34.25 and 30.6 and 30.25
same,"Body weight, Average",[2]; week 3,32.1667
same,Body weight (individual mouse),[2]; week 3,31.8 and 34.4 and 30.9 and 31.9
same,"Body weight, Average",[2]; week 4,32.92
same,Body weight (individual mouse),[2]; week 4,32.8 and 36.5 and 31.8 and 33.15
same,"Body weight, Average",[2]; week 5,32.8367
same,Body weight (individual mouse),[2]; week 5,34.2 and 36 and 31.6
same,"Body weight, Average",[2]; week 6,33.6733
same,Body weight (individual mouse),[2]; week 6,34.5 and 37.15 and 31.9
same,"Body weight, Average",[2]; week 7,33.3233
same,Body weight (individual mouse),[2]; week 7,31.45 and 36.9 and 31.75
same,"Body weight, Average",[2]; week 8,33.9233
same,Body weight (individual mouse),[2]; week 8,34.8 and 36.35 and 31.55
same,"Body weight, Average",[2]; week 9,34.59
same,Body weight (individual mouse),[2]; week 9,35.75 and 38 and 32.05 and 35.25
same,"Body weight, Average",[2]; week 10,35.6233
same,Body weight (individual mouse),[2]; week 10,38.1 and 37.65 and 32.65 and 35.65
same,"Body weight, Average",[2]; week 11,36.1933
same,Body weight (individual mouse),[2]; week 11,39.55 and 38.45 and 32.7 and 35.65
same,"Body weight, Average",[2]; week 12,37.1133
same,Body weight (individual mouse),[2]; week 12,40.35 and 39.35 and 33.6 and 37.1
same,"Body weight, Average",[2]; week 13,36.9567
same,Body weight (individual mouse),[2]; week 13,40.15 and 39.25 and 33.15 and 37.05
same,"Body weight, Average",[2]; week 14,38.33
same,Body weight (individual mouse),[2]; week 14,42.7 and 39.9 and 33.45 and 38.65
same,"Body weight, Average",[2]; week 15,38.6067
same,Body weight (individual mouse),[2]; week 15,43.6 and 39.65 and 33.2 and 38.2
same,"Body weight, Average",[2]; week 16,39.3033
same,Body weight (individual mouse),[2]; week 16,45.5 and 40.05 and 32.8 and 39.05
same,"Body weight, Average",[2]; week 17,40.5333
same,Body weight (individual mouse),[2]; week 17,47.45 and 41.6 and 33.85 and 39.8
same,"Body weight, Average",[2]; week 18,40.9333
same,Body weight (individual mouse),[2]; week 18,47.8 and 41.55 and 34.1 and 40.8
same,"Body weight, Average",[2]; week 19,42.11
same,Body weight (individual mouse),[2]; week 19,50.9 and 42.65 and 34.9 and 42.2
same,"Body weight, Average",[2]; week 20,41.4833
same,Body weight (individual mouse),[2]; week 20,50.45 and 41.95 and 34.25 and 41.75
same,"Body weight, Average",[2]; week 21,42.9333
same,Body weight (individual mouse),[2]; week 21,52.5 and 42.9 and 35.35 and 43.3
same,"Body weight, Average",[2]; week 22,43.33
same,Body weight (individual mouse),[2]; week 22,53.9 and 43.35 and 35.75 and 44.95
same,"Body weight, Average",[2]; week 23,44.06
same,Body weight (individual mouse),[2]; week 23,55.05 and 46.1 and 36.75 and 45.25
same,"Body weight, Average",[2]; week 24,44.36
same,Body weight (individual mouse),[2]; week 24,50.35 and 46.35 and 37 and 46.4
same,"Body weight, Average",[2]; week 25,45.28
same,Body weight (individual mouse),[2]; week 25,54.2 and 47.6 and 36.05 and 48.2
same,insulin-stimulated glucose uptake,[3],augmented insulin-stimulated glucose uptake of differentiated 3T3-L1 adipocytes
same,"ITT glucose, Average",[4]; 0 minutes,210.867
same,"ITT glucose, individual mice",[4]; 0 minutes,210 and 207 and 221 and 237 and 223 and 175 and 211 and 215 and 171 and 203 and 242 and 227 and 190
same,insulin sensitivity (ITT),[4]; [5],improved
same,"ITT glucose, Average",[4]; 15 minutes,143.067
same,"ITT glucose, individual mice",[4]; 15 minutes,156 and 120 and 180 and 189 and 164 and 136 and 112 and 129 and 113 and 144 and 148 and 135 and 145
same,"ITT glucose, Average","[4]; 30 minutes, 100 mg/kg/day",94.067 and 94.0667
same,"ITT glucose, individual mice",[4]; 30 minutes,106 and 97 and 111 and 100 and 102 and 82 and 74 and 96 and 105 and 107 and 84 and 69 and 88
same,"ITT glucose, Average","[4]; 45 minutes, 100 mg/kg/day",78.667 and 78.6667
same,"ITT glucose, individual mice",[4]; 45 minutes,95 and 77 and 90 and 86 and 83 and 78 and 69 and 70 and 74 and 85 and 61 and 71
same,"ITT glucose, Average",[4]; 60 minutes,69.8
same,"ITT glucose, individual mice",[4]; 60 minutes,65 and 78 and 72 and 69 and 82 and 52 and 61 and 71 and 75 and 90 and 68 and 59
same,"ITT glucose, Average","[4]; 90 minutes, 100 mg/kg/day",59.667 and 59.6667
same,"ITT glucose, individual mice",[4]; 90 minutes,57 and 51 and 69 and 75 and 72 and 54 and 65 and 46 and 45 and 59 and 84 and 67 and 53
same,"ITT glucose, Average","[4]; 120 minutes, 100 mg/kg/day",71.467 and 71.4667
same,"ITT glucose, individual mice",[4]; 120 minutes,61 and 65 and 87 and 74 and 76 and 66 and 70 and 69 and 114 and 57 and 56
same,"ITT glucose, Average","[4]; 180 minutes, 100 mg/kg/day",90.933 and 90.9333
same,"ITT glucose, individual mice",[4]; 180 minutes,83 and 84 and 113 and 70 and 94 and 69 and 85 and 73 and 98 and 104 and 130 and 99 and 76
